Experimental data taken from article PMC9257752, “Intestinal Absorption of FITC-Dextrans and Macromolecular Model Drugs in the Rat Intestinal Instillation Model” (Molecular Pharmaceutics, 2022).
Numbered stars: 1 amine (or outer) side, 2 acyl side, 3 side chain; on linkers, the order of the positions; unused ones are H or OH. Square brackets hold non-standard residues; d marks the D form. Side chains are listed from the residue outwards. Peptide text beside a SMILES is read from it. * marks the point of attachment. γGlu = O=C(O)[C@H](CCC(=O)[*:2])N[*:1]; αMeF = C[C@](N)(Cc1ccccc1)C(=O)O; αMeK = C[C@](N)(CCCCN)C(=O)O; Lauroyl = CCCCCCCCCCCC(=O)*; αMeS = C[C@](N)(CO)C(=O)O; AEEA = NCCOCCOCC(=O)O; Aib = CC(C)(N)C(=O)O

What was measured:
[1] = test system: pancreatin; set-up: method as in PMID 34795324; details: simulated intestinal fluid containing pancreatin, over a 60 min period; cited from earlier work
[2] = dogs; cited from earlier work
Excerpt: MEDI7219 is a glucagon-like peptide 1 (GLP-1) receptor agonist drug candidate developed by AstraZeneca.[10] The peptide was designed for oral delivery and has natural amino acid and α-methyl amino acid substitutions to protect against peptidasesin the gastrointestinal tract. The peptide backbone has two lipid side chains that can bind to plasma proteins, thereby prolonging the circulation half-life of the peptide. […] The calculated pI is 3.8, giving the peptide a charge of −6.2 at pH 7.4. The molecular weight of MEDI7219 is 4353, ...

[3] = Rat intestinal instillation model (intraduodenal administration, plasma pharmacokinetics, deconvolution); details: for Proportion of total absorption (120 min) occurring in interval 0–20 min / Proportion of total absorption (120 min) occurring in interval 20–40 min / Proportion of total absorption (120 min) occurring in interval 40–60 min / Proportion of total absorption (120 min) occurring in interval 60–80 min / Proportion of total absorption (120 min) occurring in interval 80–100 min / Proportion of total absorption (120 min) occurring in interval 100–120 min: average ± SD; for Cmax / Tmax: male, Wistar Han, rat, plasma; for Cmax: pH 6.5, Cmax, MEDI7219 1.0 mg, PEP12210 5.0 mg, mean ± SD (CV%); for Tmax: pH 6.5, Tmax
Procedure: Blank FaSSIF was prepared by dissolving 2.22 g of maleic acid, 1.39 g of sodium hydroxide, and 4.01 g of sodium chloride in Milli-Q water and adjusting the pH to 6.5 and volume to 1000 mL. C10 solutions were prepared at 50 or 300 mM C10 in blank FaSSIF and pH-adjusted to 6.5 by the addition of 2 M HCl. Blank FaSSIF solutions containing 0–300 mM C10 were stored at room temperature (RT) and used within 30 days. The model compounds were dissolved in blank FaSSIF with or without C10 the day before the absorption study and stored at +4 °C overnight. […] All IV formulations were sterile filtered into autoclaved injection vials and stored at +4 °C.
Upon arrival at the animal facility, the rats underwent an acclimatization period of 5 days with food and water ad libitum.
Briefly, anesthesia was induced with isoflurane after which the animal was moved to a preheated preparatory table. Fur was shaved from the throat to the lower abdomen and the shaved area was disinfected with a medicinal sponge containing chlorhexidine. The rat was draped in plastic foil and transferred to a preheated operating table where anesthesia was continued throughout the entire study using 3% isoflurane carried in an air/oxygen mixture. A polyurethane catheter was placed in the left carotid artery to allow for blood sampling, as well as blood pressure and heart rate monitoring. A midline incision was made in the abdomen, the duodenum was located and a catheter was placed in the common bile duct to avoid bile secretion into the duodenum. […] The stomach was punctured approximately 1 cm proximal to the pyloric sphincter with a 20G needle. A soft polyurethane catheter with a rounded tip was inserted into the small intestine via the gastric incision so that the tip of the catheter was positioned approximately 4 cm distal to the pylorus. The intestinal catheter was secured to the stomach with a suture and a ligature was placed at the pylorus to prevent backflow of formulation into the stomach and transit of gastric content into the duodenum. A thermometer was placed in the abdominal cavity and the abdomen was closed with stitches. A heating lamp coupled to the thermometer via a thermostat maintained the animal at 37 °C. The surgery was followed by a 30 min recovery period to allow the animal to regain normal temperature and blood pressure.
The liquid formulations were equilibrated to room temperature under magnetic stirring for 2 h prior to administration. Intestinal bolus administrations were performed over approximately 5 s via the intestinal catheter. […] The C10 doses were 7.8 mg for administrations with 50 mM C10 and 47 mg for 300 mM C10. Five to six replicates were performed for each administration group. […] Blood plasma was separated by immediately centrifuging the blood samples at +4 °C and 10 000g for 4 min. Plasma samples were transferred to new tubes and stored at −80 °C until analysis.
The animals receiving IV administration were handled and prepared in the same way as the animals receiving intestinal administration up until the placement of the carotid catheter. As no abdominal surgery was performed, a thermometer was introduced rectally.

[4] = 0 mM C10, numerical deconvolution, n = 5–6 (PEP12210 n = 2)
[5] = 50 mM C10, numerical deconvolution, n = 5–6
[6] = 300 mM C10, numerical deconvolution, n = 5–6

In the case of `CCCCCCCCCCCC(=O)N[C@@H](CCC(=O)NCCOCCOCC(=O)NCCOCCOCC(=O)NCCCC[C@H](NC(=O)[C@H](C)NC(=O)[C@@H](NC(=O)[C@](C)(Cc1ccccc1)NC(=O)[C@H](CCC(=O)O)NC(=O)[C@](C)(CCCCN)NC(=O)[C@H](C)NC(=O)[C@H](C)NC(=O)[C@H](CCC(=O)O)NC(=O)CNC(=O)[C@H](CCC(=O)O)NC(=O)[C@H](CC(C)C)NC(=O)[C@H](CCCCNC(=O)COCCOCCNC(=O)COCCOCCNC(=O)CC[C@H](NC(=O)CCCCCCCCCCC)C(=O)O)NC(=O)[C@H](CO)NC(=O)[C@](C)(CO)NC(=O)[C@@H](NC(=O)[C@H](CC(=O)O)NC(=O)[C@H](CO)NC(=O)[C@@H](NC(=O)[C@](C)(Cc1ccccc1)NC(=O)[C@H](CO)NC(=O)CNC(=O)[C@H](CCC(=O)O)NC(=O)C(C)(C)NC(=O)[C@@H](N)Cc1c[nH]cn1)[C@@H](C)O)C(C)C)[C@@H](C)CC)C(=O)N[C@H](C(=O)N[C@H](C(=O)N[C@@H](CCC(=O)O)C(=O)NCC(=O)NCC(N)=O)C(C)C)C(C)C)C(=O)O` [MEDI7219] (H-H[Aib]EGS[αMeF]TSDV[αMeS]SK([AEEA-AEEA-γGlu-Lauroyl])LEGEAA[αMeK]E[αMeF]IAK([AEEA-AEEA-γGlu-Lauroyl])VVEGG-NH2), the “Proportion of peptide remaining intact” value [1] is given as 90%, the “Half-life following oral administration” value [2] is given as 9.8 h and the “Proportion of total absorption (120 min) occurring in interval 0–20 min” value (“Proportion … in interval 0–20 min” for short) [3, 4] is given as 11% ± 2.8%. The “Proportion of total absorption (120 min) occurring in interval 20–40 min” value (from here on “Proportion … in interval 20–40 min”) [3, 4] was 12% ± 2.9%, the “Proportion of total absorption (120 min) occurring in interval 40–60 min” value (shortened to “Proportion … in interval 40–60 min”) [3, 4] was 22% ± 2.5% and the “Proportion of total absorption (120 min) occurring in interval 60–80 min” value (“Proportion … in interval 60–80 min” below) [3, 4] was 15% ± 1.2%. The “Proportion of total absorption (120 min) occurring in interval 80–100 min” value (from here on “Proportion … in interval 80–100 min”) [3, 4] was 18% ± 2.5%, the “Proportion of total absorption (120 min) occurring in interval 100–120 min” value (“Proportion … in interval 100–120 min” below) [3, 4] was 22% ± 4.9% and the “Proportion … in interval 0–20 min” value [3, 5] was 72% ± 3.6%. The “Proportion … in interval 20–40 min” value [3, 5] was 16% ± 2.6%, the “Proportion … in interval 40–60 min” value [3, 5] was 4.5% ± 1.7% and the “Proportion … in interval 60–80 min” value [3, 5] was 1.8% ± 5.5%. For the same compound, the “Proportion … in interval 80–100 min” value [3, 5] was 2.1% ± 2.6%, the “Proportion … in interval 100–120 min” value [3, 5] was 3.6% ± 4.2% and the “Proportion … in interval 0–20 min” value [3, 6] was 25% ± 5.1%. For the same compound, the “Proportion … in interval 20–40 min” value [3, 6] was 20% ± 2.6%, the “Proportion … in interval 40–60 min” value [3, 6] was 24% ± 2.3% and the “Proportion … in interval 60–80 min” value [3, 6] was 13% ± 3.5%. For the same compound, the “Proportion … in interval 80–100 min” value [3, 6] was 10% ± 3.1%, the “Proportion … in interval 100–120 min” value [3, 6] was 7.8% ± 4.0% and the Cmax ([3]; 50 mM C10, blank FaSSIF pH 6.5, dose FD10 10 mg, n = 5–6) was 440 nM. For the same compound, the Cmax ([3]; 300 mM C10, blank FaSSIF pH 6.5, dose FD10 10 mg, n = 5–6) was 1400 nM, the Tmax ([3]; 0 mM C10, blank FaSSIF pH 6.5, median (min–max), n = 5–6 (PEP12210 n = 2)) was 2 h and the Tmax ([3]; 50 mM C10, blank FaSSIF pH 6.5, median (min–max), n = 5–6) was 0.333 h. It also gave a Tmax ([3]; 300 mM C10, blank FaSSIF pH 6.5, median (min–max), n = 5–6) of 1.5 h.
